According to patent US8476284B2, “Inhibitors of Bruton's tyrosine kinase” (Pharmacyclics, Inc., priority 2006, dated 2013):

Legend:
DHL-6 cells = assay: DHL-6 cell growth (Alamar Blue assay); format: cell-based; conditions: 3E4 cells/well, complete media
Btk = Btk (Homo sapiens (Human), UniProt Q06187); assay: Btk acellular kinase assay (TR-FRET)
Sequence of Btk (Q06187 whole entry): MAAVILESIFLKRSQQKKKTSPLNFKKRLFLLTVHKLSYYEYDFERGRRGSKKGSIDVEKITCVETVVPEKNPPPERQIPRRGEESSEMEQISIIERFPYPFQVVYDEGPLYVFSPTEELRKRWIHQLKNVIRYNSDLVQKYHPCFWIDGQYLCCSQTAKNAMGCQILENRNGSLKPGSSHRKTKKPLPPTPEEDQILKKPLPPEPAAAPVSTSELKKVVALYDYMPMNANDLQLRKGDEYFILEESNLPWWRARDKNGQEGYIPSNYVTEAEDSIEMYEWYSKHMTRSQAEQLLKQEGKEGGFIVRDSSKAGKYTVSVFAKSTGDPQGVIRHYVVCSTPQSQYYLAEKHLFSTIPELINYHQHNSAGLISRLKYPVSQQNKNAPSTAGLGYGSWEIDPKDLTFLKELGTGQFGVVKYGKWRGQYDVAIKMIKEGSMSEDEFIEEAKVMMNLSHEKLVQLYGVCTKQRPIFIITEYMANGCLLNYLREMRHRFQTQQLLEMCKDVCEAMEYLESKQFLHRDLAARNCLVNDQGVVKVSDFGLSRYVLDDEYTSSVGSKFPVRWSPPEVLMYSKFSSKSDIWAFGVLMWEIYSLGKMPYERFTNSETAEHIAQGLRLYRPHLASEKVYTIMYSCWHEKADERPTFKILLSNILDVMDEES

Compound	growth of DHL-6 cells (DHL-6 cells)	fold less potent than 4 (Btk)
CN(C)C/C=C/C(=O)N1CCCC(n2nc(-c3ccc(Oc4ccccc4)cc3)c3c(N)ncnc32)C1 (centres unmarked) [Compound 15, (E)-1-(3-(4-amino-3-(4-phenoxyphenyl)-1H-pyrazolo[3,4-d]pyrimidin-1-yl)piperidin-1-yl)-4-(dimethylamino)but-2-en-1-one]	inhibit growth	–
C/C=C/C(=O)N1CCCC(n2nc(-c3ccc(Oc4ccccc4)cc3)c3c(N)ncnc32)C1 (centres unmarked) [Compound 5, (E)-1-(3-(4-amino-3-(4-phenoxyphenyl)-1H-pyrazolo[3,4-d]pyrimidin-1-yl)piperidin-1-yl)but-2-en-1-one]	–	28 fold
